For this assay, the system named is diabetischer Ratten. Kind of assay: Alloxan-induced diabetes mellitus in rats: prevention of lens and arterial wall calcinosis. The format is in vivo, Wistar-Ratten. The conditions noted are these: for durch Calcinose von Gefäßwänden verursachte Arterienveränderungen verhindern: attempts with other calcium antagonists, no dose or model details printed. The method, then: Gemäß der Erfindung wird es zum ersten Mal möglich, die Krankheiten vorbeugend bei Warmblütern mit Erfolg medikamentös zu behandeln, wie folgende Versuche zeigen: • Wistar-Ratten im Alter von 2 Monaten erhielten zur Erzeugung eines Diabetes mellitus intravenös 80 mg/kg Alloxan. Nach Zerstörung der Insulin-produzierenden ß-Zellen im Pancreas stieg der Blutzuckerwert bei den Tieren von 100 mg% auf etwa 420 mg%. Dieser Wert blieb während einer Beobachtungszeit von 6 1/2 Monaten praktisch konstant. Während der Beobachtungszeit erhielt ein Teil der Tiere täglich 25 mg/kg Verapamilhydrochlorid mit einer Schlucksonde. Bei den nicht mit Verapamil behandelten Tieren kam es in dieser Zeit bei 63 % der Tiere zu einem völligen Verlust der Transparenz der Augenlinse, während sich bei den behandelten Tieren nur in 4 % der Fälle ein Katarakt bildete.
Ohne Verapamil stieg der Calcium-Gehalt der Linse diabetischer Ratten vom Normalwert nicht-diabetischer Kontrolltiere (= 1,08 (i 0,02)) auf 10,89 (± 0,85) mmol/kg Trockengewicht an. Dagegen verblieb mit Verapamil der mittlere Calcium-Gehalt der Linsen diabetischer Tiere in dem niedrigeren Bereich von 3,46 (± 0,61) mmol/kg Trockengewicht.
-Mit der Verhinderung des Calcium-Anstiegs in den Arterien--Wänden wurden auch die elektronen-optisch - hauptsächlich in der Media - nachweisbaren degenerativen Prozesse verhütet.

For `COc1ccc(CCN(C)CCCC(C#N)(c2cc(OC)c(OC)c(OC)c2)C(C)C)cc1OC` (stereo not drawn) [Gallopamil, α-ISOpropyl-α-[(N-methyl-N-homoveratryl)--α-aminopropyl]-3,4,5-trimethoxyphenylacetonitril], where the note is “general statement that corresponding results can be obtained, no data or dose printed”, the “Verhütung der diabetischen Linsen-Calcinose und des Calcium-Anstiegs in den Arterien-Wänden” value is “Entsprechende Ergebnisse”. As to `COC(=O)C1=C(C)NC(C)=C(C(=O)OC)C1c1ccccc1[N+](=O)[O-]` [Nifedipin], the “durch Calcinose von Gefäßwänden verursachte Arterienveränderungen verhindern” value was “erfolglos”. The same measure, in the same setting: with `CCCOCCOC(=O)C1=C(C)NC(C)=C(C(=O)OCCOCCC)C1c1cccc([N+](=O)[O-])c1` [Niludipin] the entry was “erfolglos”. For `COc1ccc(CCN(C)CCCC(C#N)(c2ccc(OC)c(OC)c2)C(C)C)cc1OC` (stereo not drawn) [Verapamil, α-Isopropyl-α-[(N-methyl-N-homoveratryl)--α-aminopropyl]-3,4-dimethoxyphenylacetonitril], the “Katarakt (völliger Verlust der Transparenz der Augenlinse), Anteil der Tiere” value (alloxan-diabetic Wistar rats (80 mg/kg Alloxan i.v.), 25 mg/kg daily by gavage, observation 6 1/2 months, untreated diabetic animals 63 %) is listed as 4%. For the same compound, the “mittlerer Calcium-Gehalt der Linsen diabetischer Tiere” value (alloxan-diabetic rats, 25 mg/kg daily p.o., 6 1/2 months, untreated diabetic 10,89 (± 0,85), non-diabetic controls 1,08) is given as 3,46 (± 0,61) mmol/kg Trockengewicht. Besides, the “elektronen-optisch - hauptsächlich in der Media - nachweisbare degenerative Prozesse” value (arterial walls of the same treated diabetic rats, electron microscopy) is reported as “verhütet”. In addition, the “abnormer Anstieg der Calcium-Werte in der Wand der Aorta und der Arteria mesenterica superior (Darmarterie)” value (same alloxan-diabetic rats, 25 mg/kg daily p.o., 6 1/2 months) is recorded as “verhindert”.

These data come from patent publication EP0075823A2, “Use of basically substituted phenylacetonitriles in the prophylactic treatment of illnesses” (KNOLL AG, priority 1981, dated 1983).
